# Data taken from ChEMBL document CHEMBL1143375 (Bioorg Med Chem Lett, 2009).
# Key:
# [1] = tested on: Rattus norvegicus; test: Antiinflammatory activity in orally dosed rat assessed as inhibition of carrageenan-induced paw edema after 3 hrs; format: functional; details: po
# [2] = biological target: T1, Prostaglandin G/H synthase 1 (Ovis aries, UniProt P05979)
# T1 sequence (P05979 whole entry): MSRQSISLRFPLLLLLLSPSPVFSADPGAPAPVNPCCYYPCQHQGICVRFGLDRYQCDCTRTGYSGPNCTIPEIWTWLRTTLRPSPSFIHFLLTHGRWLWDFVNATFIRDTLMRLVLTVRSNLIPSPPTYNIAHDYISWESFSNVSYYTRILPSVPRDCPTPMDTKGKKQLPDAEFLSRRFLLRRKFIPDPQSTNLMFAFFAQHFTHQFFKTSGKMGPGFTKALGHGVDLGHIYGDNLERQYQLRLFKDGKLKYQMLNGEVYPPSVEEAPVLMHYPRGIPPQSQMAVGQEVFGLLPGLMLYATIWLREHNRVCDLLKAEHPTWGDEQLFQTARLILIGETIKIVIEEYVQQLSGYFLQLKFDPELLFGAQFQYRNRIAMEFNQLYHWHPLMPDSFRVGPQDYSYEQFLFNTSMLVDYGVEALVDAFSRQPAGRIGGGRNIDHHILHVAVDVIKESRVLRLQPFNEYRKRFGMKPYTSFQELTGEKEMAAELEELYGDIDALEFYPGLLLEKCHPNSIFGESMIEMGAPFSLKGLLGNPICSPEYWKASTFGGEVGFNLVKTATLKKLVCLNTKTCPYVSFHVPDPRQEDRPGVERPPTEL
# Description: Inhibition of ovine COX1 by enzyme immuno assay
# [3] = biological target: T2, Prostaglandin G/H synthase 2 (Homo sapiens, UniProt P35354); test: Inhibition of human recombinant COX2 by enzyme immuno assay
# T2 sequence (P35354 whole entry): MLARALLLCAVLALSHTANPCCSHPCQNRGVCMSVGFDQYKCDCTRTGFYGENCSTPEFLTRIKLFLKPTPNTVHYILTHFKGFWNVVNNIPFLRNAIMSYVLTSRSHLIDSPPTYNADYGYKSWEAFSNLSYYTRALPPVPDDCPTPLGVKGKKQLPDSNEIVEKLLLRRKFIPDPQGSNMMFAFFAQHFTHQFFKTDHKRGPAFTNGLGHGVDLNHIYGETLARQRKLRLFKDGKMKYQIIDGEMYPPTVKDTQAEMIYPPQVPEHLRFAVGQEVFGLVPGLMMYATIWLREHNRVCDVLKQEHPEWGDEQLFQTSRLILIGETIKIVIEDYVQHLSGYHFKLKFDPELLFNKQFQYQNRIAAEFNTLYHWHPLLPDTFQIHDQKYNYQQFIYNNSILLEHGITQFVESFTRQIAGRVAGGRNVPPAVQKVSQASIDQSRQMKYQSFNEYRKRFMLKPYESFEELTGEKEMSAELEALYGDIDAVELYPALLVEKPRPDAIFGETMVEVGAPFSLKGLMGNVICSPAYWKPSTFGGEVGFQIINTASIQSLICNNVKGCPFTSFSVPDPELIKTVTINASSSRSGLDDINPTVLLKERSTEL
# [4] = Inhibition of potato LOX5; parameters: species or system Solanum tuberosum
Structure (SMILES),ED50 [1],IC50 [2],IC50 [3],IC50 [4]
NS(=O)(=O)c1ccc(C#Cc2ccc(=O)n(C(F)F)c2)cc1,86.5 mg/kg,5.2 µM,6 µM,3.5 µM
CS(=O)(=O)c1ccc(C#Cc2ccc(=O)n(C(F)F)c2)cc1,68.5 mg/kg,14.1 µM,5.1 µM,3.3 µM
CS(=O)(=O)c1cccc(C#Cc2ccc(=O)n(C(F)F)c2)c1,66.1 mg/kg,32.4 µM,3.7 µM,3.2 µM
CS(=O)(=O)c1ccccc1C#Cc1ccc(=O)n(C(F)F)c1,> 100 mg/kg,> 100 µM,9.4 µM,3.4 µM
CC(=O)Oc1ccccc1C(=O)O [ASPIRIN],129 mg/kg,–,–,–
O=C(O)/C=C/c1ccc(O)c(O)c1 [CAFFEIC ACID],–,–,–,4 µM
CC(C)Cc1ccc(C(C)C(=O)O)cc1 (centres undefined) [IBUPROFEN],67.4 mg/kg,–,–,–
